From ChEMBL document CHEMBL1201862, “PubChem BioAssay data set” (2004)
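These data come from cells grown in 96-well plates and exposed to compound for 48 hours at five concentrations. The concentration for 50% growth inhibition is given as GI50.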 The source made the active and inactive calls. Cut-off read from the data, not from the text of the source: active = GI50 up to about 1.1 µM and inactive = higher.

What was measured:
Assay in all cases: growth of human tumour cells (NCI), 48 h
[1] = tested on: A549
[2] = tested on: ACHN
[3] = tested on: CAKI-1
[4] = tested on: DU-145
[5] = tested on: EKVX
[6] = tested on: HOP-62
[7] = tested on: Hs-578T
[8] = tested on: IGROV-1
[9] = tested on: M14
[10] = tested on: MDA-MB-231
[11] = tested on: MDA-MB-435
[12] = tested on: MOLT-4
[13] = tested on: Malme-3M
[14] = tested on: OVCAR-8
[15] = tested on: RXF 393
[16] = tested on: SF-539
[17] = tested on: SK-MEL-28
[18] = tested on: SNB-75
[19] = tested on: SR
[20] = tested on: SW-620

Structure (SMILES) | GI50 [1] | GI50 [2] | GI50 [3] | GI50 [4] | GI50 [5] | GI50 [6] | GI50 [7] | GI50 [8] | GI50 [9] | GI50 [10] | GI50 [11] | GI50 [12] | GI50 [13] | GI50 [14] | GI50 [15] | GI50 [16] | GI50 [17] | GI50 [18] | GI50 [19] | GI50 [20]
COc1nc2c(c(=O)n1C)NC(C(O)C(O)CO)C=N2 (stereo not given) | > 10 µM (inactive) | > 10 µM (inactive) | > 10 µM (inactive) | > 10 µM (inactive) | > 10 µM (inactive) | > 10 µM (inactive) | > 10 µM (inactive) | > 10 µM (inactive) | > 10 µM (inactive) | > 10 µM (inactive) | > 10 µM (inactive) | > 10 µM (inactive) | > 10 µM (inactive) | > 10 µM (inactive) | > 10 µM (inactive) | > 10 µM (inactive) | > 10 µM (inactive) | > 10 µM (inactive) | > 10 µM (inactive) | > 10 µM (inactive)
O=C1Cc2c(-c3cccs3)cc(-c3ccccc3)nc2-c2ccccc2N1 | 93.1 µM (inactive) | 50.2 µM (inactive) | 21.6 µM (inactive) | > 100 µM (inactive) | 33.7 µM (inactive) | 24.7 µM (inactive) | 2.14 µM (inactive) | 13.7 µM (inactive) | 28.2 µM (inactive) | 9.48 µM (inactive) | 78 µM (inactive) | > 100 µM (inactive) | 9.95 µM (inactive) | 1.45 µM (inactive) | 32.8 µM (inactive) | 22.7 µM (inactive) | > 100 µM (inactive) | 0.0441 µM (active) | > 100 µM (inactive) | > 100 µM (inactive)
Cc1cc2c(cc1C)[n+]([O-])c(C(=O)/C=C/c1ccccc1[N+](=O)[O-])c(C)[n+]2[O-] | > 80.9 µM (inactive) | 46.3 µM (inactive) | 47.2 µM (inactive) | > 100 µM (inactive) | 58.2 µM (inactive) | 34 µM (inactive) | 39.3 µM (inactive) | > 80 µM (inactive) | 74.6 µM (inactive) | > 65.5 µM (inactive) | > 100 µM (inactive) | > 100 µM (inactive) | 57 µM (inactive) | 61.5 µM (inactive) | 37.4 µM (inactive) | 31.2 µM (inactive) | 71.4 µM (inactive) | 11.1 µM (inactive) | 55.6 µM (inactive) | > 100 µM (inactive)
COc1ccc(Cl)cc1NC(=O)c1cccc([N+](=O)[O-])c1O | 11.2 µM (inactive) | 12.4 µM (inactive) | 16.2 µM (inactive) | 23.7 µM (inactive) | 9.82 µM (inactive) | 13.4 µM (inactive) | 17.5 µM (inactive) | 8.34 µM (inactive) | 24.4 µM (inactive) | 24.8 µM (inactive) | 14.4 µM (inactive) | 16.8 µM (inactive) | 4.97 µM (inactive) | 17.8 µM (inactive) | 12 µM (inactive) | 16.1 µM (inactive) | 11.7 µM (inactive) | 17.8 µM (inactive) | 17.5 µM (inactive) | 22.7 µM (inactive)
Cc1coc2c1C(=O)C(=O)c1c-2ccc2c1CCCC2(C)C [TANSHINONE IIA] | 1.48 µM (inactive) | 7.33 µM (inactive) | 1.95 µM (inactive) | 2.52 µM (inactive) | 30.3 µM (inactive) | 1.95 µM (inactive) | 3.73 µM (inactive) | 2.04 µM (inactive) | 1.06 µM (active) | 21.8 µM (inactive) | 1.48 µM (inactive) | 3.18 µM (inactive) | 0.508 µM (active) | 6.35 µM (inactive) | 5.12 µM (inactive) | 2.42 µM (inactive) | 2.15 µM (inactive) | 3.41 µM (inactive) | 0.757 µM (active) | 2.42 µM (inactive)
COc1ccc(/C=N/n2c(-c3ccccc3)n[nH]c2=O)c(OC)c1 | 36.7 µM (inactive) | 29 µM (inactive) | 41.2 µM (inactive) | > 100 µM (inactive) | 38.5 µM (inactive) | 29.8 µM (inactive) | 37.2 µM (inactive) | 36.9 µM (inactive) | 98.2 µM (inactive) | 51.5 µM (inactive) | > 100 µM (inactive) | > 100 µM (inactive) | > 100 µM (inactive) | 29.9 µM (inactive) | 29.3 µM (inactive) | 28.4 µM (inactive) | > 100 µM (inactive) | 27 µM (inactive) | > 100 µM (inactive) | > 100 µM (inactive)
CCc1[nH]nc(C(N)=O)c1/N=N/N(C)C | 43.5 µM (inactive) | 36.5 µM (inactive) | 24.8 µM (inactive) | 46.2 µM (inactive) | 57.5 µM (inactive) | 82.6 µM (inactive) | 67.9 µM (inactive) | 34.8 µM (inactive) | > 100 µM (inactive) | > 100 µM (inactive) | 64.6 µM (inactive) | 6.46 µM (inactive) | 78.3 µM (inactive) | 73.1 µM (inactive) | > 100 µM (inactive) | 78.7 µM (inactive) | > 100 µM (inactive) | 65.9 µM (inactive) | 10.1 µM (inactive) | > 100 µM (inactive)
C/C(=N\Nc1nc2ccccc2s1)c1ccncn1 | 2.22 µM (inactive) | 0.0673 µM (active) | 0.145 µM (active) | 3.54 µM (inactive) | 0.245 µM (active) | 2.28 µM (inactive) | 6.03 µM (inactive) | 0.485 µM (active) | 0.51 µM (active) | 0.499 µM (active) | 2.69 µM (inactive) | 0.145 µM (active) | 0.705 µM (active) | 0.286 µM (active) | 7.74 µM (inactive) | 1.39 µM (inactive) | 2 µM (inactive) | 4.1 µM (inactive) | 0.641 µM (active) | 0.229 µM (active)
N[C@H](C(=O)O)[C@@H]1CC(Br)=NO1 | 3.66 µM (inactive) | 8.22 µM (inactive) | 18.4 µM (inactive) | 5.57 µM (inactive) | 10.9 µM (inactive) | 12.2 µM (inactive) | 8.95 µM (inactive) | 19 µM (inactive) | 11.5 µM (inactive) | > 100 µM (inactive) | 19.7 µM (inactive) | 22.6 µM (inactive) | > 25.1 µM (inactive) | > 25 µM (inactive) | 11.9 µM (inactive) | 5.21 µM (inactive) | 32.7 µM (inactive) | 16.8 µM (inactive) | 3.66 µM (inactive) | 5.87 µM (inactive)
CC(C)(C)OC(=O)N1C(OP(=O)(Oc2ccccc2)Oc2ccccc2)=CSc2ccccc21 | 67.8 µM (inactive) | 27.5 µM (inactive) | 18.8 µM (inactive) | 89.9 µM (inactive) | 31.8 µM (inactive) | 47.6 µM (inactive) | 45.8 µM (inactive) | 38.1 µM (inactive) | 25.8 µM (inactive) | 24 µM (inactive) | 31.3 µM (inactive) | 20.1 µM (inactive) | 27.7 µM (inactive) | 59 µM (inactive) | 41.8 µM (inactive) | 72.8 µM (inactive) | 26.5 µM (inactive) | 31 µM (inactive) | 31.8 µM (inactive) | 41.2 µM (inactive)
